Test results as given in paper PMC10519361, “Shigella flexneri utilizes intestinal signals to control its virulence” (Gut Microbes, 2023).

Biological target: T1, VirF (Shigella flexneri, UniProt P0A2T1)
T1 construct: full ORF in pET15b, His-tagged (tag apparently kept)
Test: ELISA, fatty acid coated on plate, His-VirF detected by anti-His antibody
Assay type: binding
Conditions: read-out: apparent Kd

T1 sequence (P0A2T1 whole entry): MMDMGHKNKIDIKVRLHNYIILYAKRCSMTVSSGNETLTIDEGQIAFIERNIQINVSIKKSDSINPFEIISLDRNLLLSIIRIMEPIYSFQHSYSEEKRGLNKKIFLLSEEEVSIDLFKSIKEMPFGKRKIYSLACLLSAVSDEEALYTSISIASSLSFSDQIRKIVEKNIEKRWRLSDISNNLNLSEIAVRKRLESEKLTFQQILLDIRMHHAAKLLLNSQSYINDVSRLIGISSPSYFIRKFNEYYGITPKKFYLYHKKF

CCCCCCCCCCCCCCCCC/C=C\C(=O)O [c2-EA]
Kd: 11.2 µM

CCCCCCCCCCCCC/C=C\C(=O)O [c2-HDA]
Kd: 8.2 µM

CCCCCCCC/C=C\CCCCCCCC(=O)O [oleic acid]
Kd: 14.3 µM

CCCCCC/C=C\CCCCCCCC(=O)O [palmitoleic acid]
Kd: 12.9 µM

CCCCCCCCCCCCC/C=C/C(=O)O [t2-HDA]
Kd: 9.5 µM
